Patent US20180242591A1, “Insect Repellent” (Evolva SA, priority 2015, published 2018)
“And” between values parts separate entries of the source, which are not always exact repeats. Identical values can stand only once.

System: female Aedes aegypti mosquitoes
Experiment: In vitro repellency against mosquitoes, treated collagen membranes over blood-filled wells
Assay type: in vivo
Conditions: 20% DEET in ethanol (positive control), 25 μL on membrane; probes over 20 minutes; five replicates
Description: A laboratory trial was conducted to evaluate the repellency of santalol against female Aedes aegypti mosquitoes using an in vitro method. A 20% DEET positive control and untreated and ethanol negative controls were also assessed for comparison purposes. Test substances were applied to prepared collagen membranes placed over heated, blood-filled wells and exposed to mosquitoes. The number of mosquitoes probing each well was recorded at two minute intervals up to 20 minutes. Female adult laboratory reared Aedes aegypti mosquitoes (susceptible) were obtained from Benzon Research in Carlisle, Pa. 250 mosquitoes were used per replicate (5 replicates per test). Adult mosquitoes were 3-8 days old. Santalol was diluted in ethanol to 2% and 5% concentrations. A positive control consisting of 20% DEET in ethanol was prepared using stock solutions. Negative controls consisted of no treatment, and ethanol-only treatment. […] The number of mosquitoes probing each membrane was recorded every two minutes for twenty minutes. […] Percent repellency was calculated for each replicate using the total number of probes with the following formula: [formula] […] Average percent repellency and standard error (SE) were calculated across all five replicates. […]

CCN(CC)C(=O)c1cccc(C)c1 [20% DEET, N,N-Diethyl-meta-toluamide]
Average percent repellency ± SE: 93.9% and 93.9 ± 2.3%
